# Results published in US10584117B2, “1,3,4-oxadiazole amide derivative compound as histone deacetylase 6 inhibitor, and pharmaceutical composition containing same” (Chong Kun Dang Pharmaceutical Corp., priority 2015, dated 2020).
# Target: T1, human recombinant HDAC6 (Homo sapiens, UniProt Q9UBN7)
# T1 construct: purchased Calbiochem 382180
# T1 sequence (Q9UBN7 1-1215): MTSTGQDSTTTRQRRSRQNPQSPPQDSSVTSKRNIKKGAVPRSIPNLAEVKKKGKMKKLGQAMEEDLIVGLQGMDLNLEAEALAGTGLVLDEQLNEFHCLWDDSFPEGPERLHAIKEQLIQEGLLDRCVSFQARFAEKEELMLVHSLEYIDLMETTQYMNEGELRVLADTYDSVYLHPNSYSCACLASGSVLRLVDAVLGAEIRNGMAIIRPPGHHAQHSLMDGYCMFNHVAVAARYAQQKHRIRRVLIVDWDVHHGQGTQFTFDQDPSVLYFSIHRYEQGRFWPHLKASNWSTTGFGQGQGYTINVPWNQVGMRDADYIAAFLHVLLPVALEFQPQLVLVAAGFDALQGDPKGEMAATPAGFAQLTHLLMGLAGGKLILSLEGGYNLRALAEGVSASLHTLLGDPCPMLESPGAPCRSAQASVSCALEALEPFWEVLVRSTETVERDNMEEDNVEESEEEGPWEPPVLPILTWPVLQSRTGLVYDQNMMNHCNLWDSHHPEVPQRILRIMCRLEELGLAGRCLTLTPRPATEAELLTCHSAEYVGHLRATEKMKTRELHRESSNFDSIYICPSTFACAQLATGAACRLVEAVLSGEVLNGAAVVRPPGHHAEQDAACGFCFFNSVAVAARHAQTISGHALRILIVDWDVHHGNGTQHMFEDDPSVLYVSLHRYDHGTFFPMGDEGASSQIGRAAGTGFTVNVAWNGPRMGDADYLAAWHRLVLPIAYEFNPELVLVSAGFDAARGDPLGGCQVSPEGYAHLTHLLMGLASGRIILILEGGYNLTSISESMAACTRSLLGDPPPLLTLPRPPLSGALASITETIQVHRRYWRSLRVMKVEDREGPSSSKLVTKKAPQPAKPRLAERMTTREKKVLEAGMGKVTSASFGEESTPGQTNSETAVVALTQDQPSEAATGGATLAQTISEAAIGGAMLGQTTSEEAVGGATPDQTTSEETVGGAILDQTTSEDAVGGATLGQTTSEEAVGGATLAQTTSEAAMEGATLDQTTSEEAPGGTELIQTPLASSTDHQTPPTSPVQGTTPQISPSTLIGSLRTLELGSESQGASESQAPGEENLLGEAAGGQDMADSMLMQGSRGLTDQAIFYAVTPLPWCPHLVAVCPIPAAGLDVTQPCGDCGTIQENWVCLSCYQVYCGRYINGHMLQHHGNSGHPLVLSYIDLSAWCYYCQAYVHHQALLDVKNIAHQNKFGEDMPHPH
# Assay: HDAC enzyme activity inhibition assay (HDAC6, fluorimetric kit)
# Format: biochemical
# Conditions: for HDAC6 selectivity (fold): HDAC6 versus HDAC1; for IC50: same protocol as the HDAC1 test
# In short: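 Fluorimetric kit assay: human recombinant HDAC1 or HDAC6 (0.3 μg) reacted with 10 μM Fluor de Lys-SIRT1 substrate and 5-fold serially diluted compound for 60 minutes at 30° C, followed by 30 minutes of developer. Fluorescence was read at Ex 360/Em 460, and IC50 values were calculated from it.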
SMILES,HDAC6 selectivity (fold),IC50
"CC(C)N1CCC(C(=O)N(Cc2ccc(-c3nnc(C(F)(F)F)o3)cc2)c2ccccc2)CC1 [Compound 11143, 1-isopropyl-N-phenyl-N-(4-(5-(trifluoromethyl)-1,3,4-oxadiazol-2-yl)benzyl)piperidine-4-carboxamide]",452 fold,221 nM
"CC(=O)N1CCC(C(=O)N(Cc2ccc(-c3nnc(C(F)(F)F)o3)cc2F)c2ccccc2)CC1 [Compound 11203, 1-acetyl-N-(2-fluoro-4-(5-(trifluoromethyl)-1,3,4-oxadiazol-2-yl)benzyl)-N-phenylpiperidine-4-carboxamide]",694 fold,144 nM
"CC(C)C(=O)N1CCC(C(=O)N(Cc2ccc(-c3nnc(C(F)F)o3)cc2F)c2ccccc2)CC1 [Compound 11213, N-(4-(5-(difluoromethyl)-1,3,4-oxadiazol-2-yl)-2-fluorobenzyl)-1-isobutyryl-N-phenylpiperidine-4-carboxamide]",781 fold,128 nM
"CN1CC(C(=O)N(Cc2ccc(-c3nnc(C(F)(F)F)o3)cc2)c2ccccc2)C1 [Compound 11138, 1-methyl-N-phenyl-N-(4-(5-(trifluoromethyl)-1,3,4-oxadiazol-2-yl)benzyl)azetidine-3-carboxamide]",351 fold,285 nM
"CC(C)CC(=O)N(Cc1ccc(-c2nnc(C(F)F)o2)cc1F)c1cccc(F)c1 [Compound 11358, N-(4-(5-(difluoromethyl)-1,3,4-oxadiazol-2-yl)-2-fluorobenzyl)-N-(3-fluorophenyl)-3-methylbutanamide]",847 fold,118 nM
"CCC(=O)N1CCC(C(=O)N(Cc2ccc(-c3nnc(C(F)(F)F)o3)cc2F)c2ccccc2)CC1 [Compound 11204, N-(2-fluoro-4-(5-(trifluoromethyl)-1,3,4-oxadiazol-2-yl)benzyl)-N-phenyl-1-propionylpiperidine-4-carboxamide]",917 fold,109 nM

# Compounds with a lower IC50, results first:
HDAC6 selectivity (fold),IC50,SMILES
1923 fold,52 nM,"CN1CC(C(=O)N(Cc2ccc(-c3nnc(C(F)(F)F)o3)cc2F)c2ccccc2)C1 [Compound 11232, N-(2-fluoro-4-(5-(trifluoromethyl)-1,3,4-oxadiazol-2-yl)benzyl)-1-methyl-N-phenylazetidine-3-carboxamide]"
1695 fold,59 nM,"O=C(c1ccncc1)N(Cc1ccc(-c2nnc(C(F)F)o2)cc1)c1ccccc1 [Compound 11108, N-(4-(5-(difluoromethyl)-1,3,4-oxadiazol-2-yl)benzyl)-N-phenylisonicotinamide]"
1786 fold,56 nM,"CCC(=O)N1CC(C(=O)N(Cc2ccc(-c3nnc(C(F)F)o3)cc2F)c2cccc(F)c2)C1 [Compound 11331, N-(4-(5-(difluoromethyl)-1,3,4-oxadiazol-2-yl)-2-fluorobenzyl)-N-(3-fluorophenyl)-1-propionylazetidine-3-carboxamide]"
1235 fold,81 nM,"CCCCN1CC(C(=O)N(Cc2ccc(-c3nnc(C(F)F)o3)cc2F)c2cccc(F)c2)C1 [Compound 11328, 1-butyl-N-(4-(5-(difluoromethyl)-1,3,4-oxadiazol-2-yl)-2-fluorobenzyl)-N-(3-fluorophenyl)azetidine-3-carboxamide]"
1370 fold,73 nM,"CC(C)C(=O)N1CC(C(=O)N(Cc2ccc(-c3nnc(C(F)(F)F)o3)cc2F)c2ccccc2)C1 [Compound 11236, N-(2-fluoro-4-(5-(trifluoromethyl)-1,3,4-oxadiazol-2-yl)benzyl)-1-isobutyryl-N-phenylazetidine-3-carboxamide]"
2500 fold,40 nM,"CN1CCC(C(=O)N(Cc2ccc(-c3nnc(C(F)F)o3)cn2)c2cccc(F)c2)CC1 [Compound 11418, N-((5-(5-(difluoromethyl)-1,3,4-oxadiazol-2-yl)pyridin-2-yl)methyl)-N-(3-fluorophenyl)-1-methylpiperidine-4-carboxamide]"
